# Test results as given in patent US20190388425A1, “SUBSTITUTED IMIDAZOPYRIDINPYRIMIDINES” (Bayer Pharma Aktiengesellschaft, priority 2017, published 2019).
# Biological target: T1, human full-length MKNK1 (Homo sapiens, UniProt Q9BUB5, T385D)
# T1 construct: GST (N); purchased Carna Biosciences 02-145; host or cells: insect cells (baculovirus expression system)
# Assay: MKNK1 kinase high ATP assay (TR-FRET)
# Format: biochemical
# Details: TR-FRET, 2 mM ATP (high ATP), 15 min preincubation with enzyme, 30 min reaction at 22° C.; read-out: MKNK1 IC50
# How it was run: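 Full-length human MKNK1 (T385D) preincubated 15 min at 22 °C with compound in HEPES pH 7.5/MgCl2/DTT buffer; reaction with 2 mM ATP (final) and 0.06 μM biotinylated peptide (final), 30 min at 22 °C.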
# T1 sequence (Q9BUB5 1-424 isoform Q9BUB5-2 T344D): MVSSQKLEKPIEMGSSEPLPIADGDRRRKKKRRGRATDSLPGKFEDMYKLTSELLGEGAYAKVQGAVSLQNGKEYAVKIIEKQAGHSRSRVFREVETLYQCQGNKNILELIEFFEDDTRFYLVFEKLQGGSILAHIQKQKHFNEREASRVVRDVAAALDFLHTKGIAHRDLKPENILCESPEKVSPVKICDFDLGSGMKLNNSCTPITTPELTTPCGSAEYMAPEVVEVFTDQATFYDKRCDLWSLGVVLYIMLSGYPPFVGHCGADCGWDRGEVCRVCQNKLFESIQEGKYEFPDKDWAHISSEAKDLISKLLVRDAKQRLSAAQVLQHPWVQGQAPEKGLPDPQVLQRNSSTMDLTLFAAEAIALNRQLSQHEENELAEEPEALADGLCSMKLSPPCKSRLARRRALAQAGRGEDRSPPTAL
row,IC50 [nM],SMILES
1,1.4,"Cc1cc(Nc2ncnc3sc4c(c23)CC[C@H](C(=O)N2CCN(C)[C@H](C)C2)C4)c(=O)n2c1C(=O)NC21CCC(F)(F)CC1 [Example 57, 6′-{[(7S)-7-{[(3R)-3,4-Dimethylpiperazin-1-yl]carbonyl}-5,6,7,8-tetrahydro[1]benzothieno[2,3-d]pyrimidin-4-yl]amino}-4,4-difluoro-8′-methyl-2′H-spiro[cyclohexane-1,3′-imidazo[1,5-a]pyridine]-1′,5′-dione]"
2,0.5,"Cc1cc(Nc2ncnc3sc4c(c23)CC[C@H](C(=O)N2C[C@H]3C[C@@H]2CO3)C4)c(=O)n2c1C(=O)NC21CCC(F)(F)CC1 [Example 58, 4,4-Difluoro-8′-methyl-6′-({(7S)-7-[(1R,4R)-2-oxa-5-azabicyclo[2.2.1]hept-5-ylcarbonyl]-5,6,7,8-tetrahydro[1]benzothieno[2,3-d]pyrimidin-4-yl}amino)-2′H-spiro[cyclohexane-1,3′-imidazo[1,5-a]pyridine]-1′,5′-dione]"
3,37.9,"Cc1cc(Nc2ncnc3sc4c(c23)CC[C@H](C(=O)O)C4)c(=O)n2c1C(=O)N[C@]21CC[C@@](O)(C(F)(F)F)CC1 [Example 59, (7S)-4-{[(cis)-4-Hydroxy-8′-methyl-1′,5′-dioxo-4-(trifluoromethyl)-1′,5′-dihydro-2′H-spiro[cyclohexane-1,3′-imidazo[1,5-a]pyridin]-6′-yl]amino}-5,6,7,8-tetrahydro[1]benzothieno[2,3-d]pyrimidine-7-carboxylic acid]"
4,9.5,"Cc1cc(Nc2ncnc3sc4c(c23)CC[C@H](C(=O)N(C)C)C4)c(=O)n2c1C(=O)N[C@]21CC[C@@](O)(C(F)(F)F)CC1 [Example 60, (7S)-4-{[(cis)-4-Hydroxy-8′-methyl-1′,5′-dioxo-4-(trifluoromethyl)-1′,5′-dihydro-2′H-spiro[cyclohexane-1,3′-imidazo[1,5-a]pyridin]-6′-yl]amino}-N,N-dimethyl-5,6,7,8-tetrahydro[1]benzothieno[2,3-d]pyrimidine-7-carboxamide]"
5,8.4,"Cc1cc(Nc2ncnc3sc4c(c23)CC[C@H](C(=O)N2CCC2)C4)c(=O)n2c1C(=O)N[C@]21CC[C@@](O)(C(F)(F)F)CC1 [Example 61, (cis)-6′-{[(7S)-7-(Azetidin-1-ylcarbonyl)-5,6,7,8-tetrahydro[1]benzothieno[2,3-d]pyrimidin-4-yl]amino}-4-hydroxy-8′-methyl-4-(trifluoromethyl)-2′H-spiro[cyclohexane-1,3′-imidazo[1,5-a]pyridine]-1′,5′-dione]"
6,6.5,Cc1cc(Nc2ncnc3sc4c(c23)CC[C@H](C(=O)N2CC(N(C)C)C2)C4)c(=O)n2c1C(=O)N[C@]21CC[C@@](O)(C(F)(F)F)CC1 [Example 62]
7,1.6,"Cc1cc(Nc2ncnc3sc4c(c23)CC[C@H](C(=O)N2CC[C@H](N(C)C)C2)C4)c(=O)n2c1C(=O)N[C@]21CC[C@@](O)(C(F)(F)F)CC1 [Example 63, (cis)-6′-{[(7S)-7-{[(3S)-3-(Dimethylamino)pyrrolidin-1-yl]carbonyl}-5,6,7,8-tetrahydro[1]benzothieno[2,3-d]pyrimidin-4-yl]amino}-4-hydroxy-8′-methyl-4-(trifluoromethyl)-2′H-spiro[cyclohexane-1,3′-imidazo[1,5-a]pyridine]-1′,5′-dione]"
8,3.8,"Cc1cc(Nc2ncnc3sc4c(c23)CC[C@H](C(=O)N2C[C@H]3C[C@@H]2CO3)C4)c(=O)n2c1C(=O)N[C@]21CC[C@@](O)(C(F)(F)F)CC1 [Example 64, (cis)-4-Hydroxy-8′-methyl-6′-({(7S)-7-[(1R,4R)-2-oxa-5-azabicyclo[2.2.1]hept-5-ylcarbonyl]-5,6,7,8-tetrahydro[1]benzothieno[2,3-d]pyrimidin-4-yl}amino)-4-(trifluoromethyl)-2′H-spiro[cyclohexane-1,3′-imidazo[1,5-a]pyridine]-1′,5′-dione]"
9,3.1,"Cc1cc(Nc2ncnc3sc4c(c23)CC[C@H](C(=O)N(C)C)C4)c(=O)n2c1C(=O)NC21CS(=O)(=O)C1 [Example 66, (7S)—N,N-Dimethyl-4-[(8-methyl-1′,1′-dioxido-1,5-dioxo-1,5-dihydro-2H-spiro[imidazo[1,5-a]pyridine-3,3′-thietan]-6-yl)amino]-5,6,7,8-tetrahydro[1]benzothieno[2,3-d]pyrimidine-7-carboxamide]"
10,2,"Cc1cc(Nc2ncnc3sc4c(c23)CC[C@H](C(=O)N2CCC2)C4)c(=O)n2c1C(=O)NC21CS(=O)(=O)C1 [Example 67, 6-{[(7S)-7-(Azetidin-1-ylcarbonyl)-5,6,7,8-tetrahydro[1]benzothieno[2,3-d]pyrimidin-4-yl]amino}-8-methyl-2H-spiro[imidazo[1,5-a]pyridine-3,3′-thietane]-1,5-dione 1′,1′-dioxide]"
11,2.5,"Cc1cc(Nc2ncnc3sc4c(c23)CC[C@H](C(=O)N2CC(C#N)C2)C4)c(=O)n2c1C(=O)NC21CS(=O)(=O)C1 [Example 68, 1-({(7S)-4-[(8-Methyl-1′,1′-dioxido-1,5-dioxo-1,5-dihydro-2H-spiro[imidazo[1,5-a]pyridine-3,3′-thietan]-6-yl)amino]-5,6,7,8-tetrahydro[1]benzothieno[2,3-d]pyrimidin-7-yl}carbonyl)azetidine-3-carbonitrile]"
12,2,"Cc1cc(Nc2ncnc3sc4c(c23)CC[C@H](C(=O)N2CC(N(C)C)C2)C4)c(=O)n2c1C(=O)NC21CS(=O)(=O)C1 [Example 69, 6-{[(7S)-7-{[3-(Dimethylamino)azetidin-1-yl]carbonyl}-5,6,7,8-tetrahydro[1]benzothieno[2,3-d]pyrimidin-4-yl]amino}-8-methyl-2H-spiro[imidazo[1,5-a]pyridine-3,3′-thietane]-1,5-dione 1′,1′-dioxide]"
13,0.8,"Cc1cc(Nc2ncnc3sc4c(c23)CC[C@H](C(=O)N2CC[C@H](N(C)C)C2)C4)c(=O)n2c1C(=O)NC21CS(=O)(=O)C1 [Example 70, 6-{[(7S)-7-{[(3S)-3-(Dimethylamino)pyrrolidin-1-yl]carbonyl}-5,6,7,8-tetrahydro[1]benzothieno[2,3-d]pyrimidin-4-yl]amino}-8-methyl-2H-spiro[imidazo[1,5-a]pyridine-3,3′-thietane]-1,5-dione 1′,1′-dioxide]"
14,0.8,"Cc1cc(Nc2ncnc3sc4c(c23)CC[C@H](C(=O)N2CCN(C)[C@H](C)C2)C4)c(=O)n2c1C(=O)NC21CS(=O)(=O)C1 [Example 71, 6-{[(7S)-7-{[(3R)-3,4-Dimethylpiperazin-1-yl]carbonyl}-5,6,7,8-tetrahydro[1]benzothieno[2,3-d]pyrimidin-4-yl]amino}-8-methyl-2H-spiro[imidazo[1,5-a]pyridine-3,3′-thietane]-1,5-dione 1′,1′-dioxide]"
15,0.7,"Cc1cc(Nc2ncnc3sc4c(c23)CC[C@H](C(=O)N2C[C@H]3C[C@@H]2CO3)C4)c(=O)n2c1C(=O)NC21CS(=O)(=O)C1 [Example 72, 8-Methyl-6-({(7S)-7-[(1R,4R)-2-oxa-5-azabicyclo[2.2.1]hept-5-ylcarbonyl]-5,6,7,8-tetrahydro[1]benzothieno[2,3-d]pyrimidin-4-yl}amino)-2H-spiro[imidazo[1,5-a]pyridine-3,3′-thietane]-1,5-dione 1′,1′-dioxide]"
16,1.6,"O=C1NC2(CCCCC2)n2c1c(Cl)cc(Nc1ncnc3sc4c(c13)CC[C@H](C(=O)O)C4)c2=O [Example 73, (7S)-4-[(8′-Chloro-1′,5′-dioxo-1′,5′-dihydro-2′H-spiro[cyclohexane-1,3′-imidazo[1,5-a]pyridin]-6′-yl)amino]-5,6,7,8-tetrahydro[1]benzothieno[2,3-d]pyrimidine-7-carboxylic acid]"
17,0.9,"NC(=O)[C@H]1CCc2c(sc3ncnc(Nc4cc(Cl)c5n(c4=O)C4(CCCCC4)NC5=O)c23)C1 [Example 74, (7S)-4-[(8′-Chloro-1′,5′-dioxo-1′,5′-dihydro-2′H-spiro[cyclohexane-1,3′-imidazo[1,5-a]pyridin]-6′-yl)amino]-5,6,7,8-tetrahydro[1]benzothieno[2,3-d]pyrimidine-7-carboxamide]"
18,1.7,"CN(C)C(=O)[C@H]1CCc2c(sc3ncnc(Nc4cc(Cl)c5n(c4=O)C4(CCCCC4)NC5=O)c23)C1 [Example 75, (7S)-4-[(8′-Chloro-1′,5′-dioxo-1′,5′-dihydro-2′H-spiro[cyclohexane-1,3′-imidazo[1,5-a]pyridin]-6′-yl)amino]-N,N-dimethyl-5,6,7,8-tetrahydro[1]benzothieno[2,3-d]pyrimidine-7-carboxamide]"
19,0.9,"O=C1NC2(CCCCC2)n2c1c(Cl)cc(Nc1ncnc3sc4c(c13)CC[C@H](C(=O)N1CCC1)C4)c2=O [Example 76, 6′-{[(7S)-7-(Azetidin-1-ylcarbonyl)-5,6,7,8-tetrahydro[1]benzothieno[2,3-d]pyrimidin-4-yl]amino}-8′-chloro-2′H-spiro[cyclohexane-1,3′-imidazo[1,5-a]pyridine]-1′,5′-dione]"
20,0.8,"N#CC1CN(C(=O)[C@H]2CCc3c(sc4ncnc(Nc5cc(Cl)c6n(c5=O)C5(CCCCC5)NC6=O)c34)C2)C1 [Example 77, 1-({(7S)-4-[(8′-Chloro-1′,5′-dioxo-1′,5′-dihydro-2′H-spiro[cyclohexane-1,3′-imidazo[1,5-a]pyridin]-6′-yl)amino]-5,6,7,8-tetrahydro[1]benzothieno[2,3-d]pyrimidin-7-yl}carbonyl)azetidine-3-carbonitrile]"
21,4.8,"CN(C)[C@H]1CCN(C(=O)[C@H]2CCc3c(sc4ncnc(Nc5cc(Cl)c6n(c5=O)C5(CCCCC5)NC6=O)c34)C2)C1 [Example 78, 8′-Chloro-6′-{[(7S)-7-{[(3S)-3-(dimethylamino)pyrrolidin-1-yl]carbonyl}-5,6,7,8-tetrahydro[1]benzothieno[2,3-d]pyrimidin-4-yl]amino}-2′H-spiro[cyclohexane-1,3′-imidazo[1,5-a]pyridine]-1′,5′-dione]"
